# Results as given in ChEMBL document CHEMBL6153097, “Design, synthesis, and biological evaluation of Flavokavain B derivatives as potent TRF2 inhibitors for the treatment of Osteosarcoma” (Eur J Med Chem, 2025).
# Calls of active or inactive are those of the source. The rule behind the calls is not given here.
# Legend:
# U2OS [1] = assay: Induction of DNA damage in human U2OS cells assessed as increase in 53BP1 foci by Immunofluorescence based FISH assay; type: functional, cell-based; conditions: dose 2-4 µM
# MG-63 [2] = assay: […] inhibition of TRF2 expression in human MG-63 cells at 4 uM measured upto 12 hrs measured after drug washout by Western blot analysis; type: functional, cell-based
# U2OS [3] = assay: Induction of apoptosis in human U2OS cells assessed as early apoptotic cells at 2 uM measured after 48 hrs annexin-V and propidium iodide staining based flow cytometry analysis (reference value: 2.38%); type: functional
# U2OS [4] = assay: Antiproliferative activity against human U2OS cells assessed as reduction in cell viability at 2 to 4 uM measured for 8 days by PDL assay; type: functional, cell-based; conditions: dose 2-4 µM, time 8.0 day
# [5] = Inhibition of TRF2 expression in human U2OS cells at 2 uM measured after 48 hrs by Western blot analysis relative to control; type: functional
# U2OS [6] = assay: Induction of apoptosis in human U2OS cells assessed as early apoptotic cells at 4 uM measured after 48 hrs annexin-V and propidium iodide staining based flow cytometry analysis (reference value: 2.38%); type: functional
# [7] = Acute toxicity in mouse assessed as change in weight of liver at 30 to 90 mg/kg, po single dose measured for 7 days; type: organism-based; conditions: in vivo, 168 h, dose 30-90 mg/kg, time 7 day
# MG-63 [8] = assay: Induction of DNA damage in human MG-63 cells assessed as upregulation of gamma-H2AX level by Immunofluorescence based FISH assay; type: functional, cell-based; conditions: dose 2-4 µM
# [9] = Acute toxicity in mouse assessed as alanine aminotransferase level (ALT) level in serum at 30 to 90 mg/kg, po single dose measured for 7 days; type: organism-based; conditions: in vivo, 168 h, dose 30-90 mg/kg, time 7 day
# [10] = Acute toxicity in mouse assessed as creatinine (Cr) level in serum at 30 to 90 mg/kg, po single dose measured for 7 days; type: organism-based; conditions: in vivo, 168 h, dose 30-90 mg/kg, time 7 day
# MG-63 [11] = assay: Induction of apoptosis in human MG-63 cells assessed as late apoptotic cells at 4 uM measured after 48 hrs annexin-V and propidium iodide staining based flow cytometry analysis (reference value: 7.71%); type: functional
# MG-63 [12] = assay: Induction of DNA damage in human MG-63 cells assessed as increase in telomere dysfunction-foci at 4 uM by Immunofluorescence based FISH assay; type: functional, cell-based
# U2OS [13] = assay: Antiproliferative activity against human U2OS cells assessed as reduction in cell viability incubated for 48 hrs by MTT assay; type: functional, cell-based
# U2OS [14] = assay: Induction of DNA damage in human U2OS cells assessed as upregulation of gamma-H2AX level by Immunofluorescence based FISH assay; type: functional, cell-based; conditions: dose 2-4 µM
# MG-63 [15] = assay: Antitumor activity against human MG-63 cells xenografted in female BALB/c mouse model assessed as incomplete nuclei appearance in tumor tissue treated via oral gavage administered once a day for 3 weeks by HE staining analysis; type: functional, cell-based; conditions: dose 10-60 mg/kg
# U2OS [16] = assay: Inhibition of TRF2 expression in human U2OS cells by co-immunoprecipitation based Western blot analysis; type: functional, cell-based
# U2OS [17] = assay: Induction of apoptosis in human U2OS cells assessed as late apoptotic cells at 2 uM measured after 48 hrs annexin-V and propidium iodide staining based flow cytometry analysis (reference value: 5.94%); type: functional
# U2OS [18] = assay: Downregulation of TRF expression levels in human U2OS cells measured after 48 hrs by Western blot analysis; type: functional, cell-based; conditions: dose 2-4 µM
# [19] = molecular target: T1, Telomeric repeat-binding factor 2 (Homo sapiens) (UniProt Q15554); assay: Induction of thermal stabilization of TRF2 TRFH domain in human MG-63 cells at 46 to 55 degC incubated for 4 hrs by cellular thermal shift assay (CESTA) based Western blot analysis; type: cell-based
# T1 sequence (whole entry): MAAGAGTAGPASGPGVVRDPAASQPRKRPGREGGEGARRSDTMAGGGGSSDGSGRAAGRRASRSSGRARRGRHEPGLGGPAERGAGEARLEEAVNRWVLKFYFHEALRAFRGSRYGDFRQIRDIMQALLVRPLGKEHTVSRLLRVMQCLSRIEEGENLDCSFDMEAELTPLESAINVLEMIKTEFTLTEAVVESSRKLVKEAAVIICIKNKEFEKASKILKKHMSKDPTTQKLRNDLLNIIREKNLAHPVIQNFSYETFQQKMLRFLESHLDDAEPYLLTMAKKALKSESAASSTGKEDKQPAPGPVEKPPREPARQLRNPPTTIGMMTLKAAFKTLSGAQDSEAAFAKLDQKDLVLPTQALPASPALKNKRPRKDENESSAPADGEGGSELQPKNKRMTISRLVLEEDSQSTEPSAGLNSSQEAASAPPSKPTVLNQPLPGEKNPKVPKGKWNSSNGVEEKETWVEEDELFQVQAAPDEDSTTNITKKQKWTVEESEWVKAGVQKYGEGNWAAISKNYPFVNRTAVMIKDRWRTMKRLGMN
# MG-63 [20] = assay: Induction of DNA damage response in human MG-63 cells assessed as telomere dysfunction by measuring telomere length shortening at 2 to 4 uM by Immunofluorescence based FISH assay; type: functional, cell-based; conditions: dose 2-4 µM
# MG-63 [21] = assay: Induction of apoptosis in human MG-63 cells assessed as reduction in TRF2 foci at 2 to 4 microM by Immunofluorescence based FISH assay; type: functional, cell-based; conditions: dose 2-4 µM
# U2OS [22] = assay: Induction of apoptosis in human U2OS cells assessed as necrotic cells at 4 uM measured after 48 hrs annexin-V and propidium iodide staining based flow cytometry analysis (reference value: 2.46%); type: functional
# U2OS [23] = assay: Induction of apoptosis in human U2OS cells assessed as reduction in colocalization of TRF2 with telomere at 2 to 4 microM by Immunofluorescence based FISH assay; type: functional, cell-based; conditions: dose 2-4 µM
# U2OS [24] = assay: Induction of apoptosis in human U2OS cells assessed as viable cells at 2 uM measured after 48 hrs annexin-V and propidium iodide staining based flow cytometry analysis (reference value: 89.2%); type: functional; conditions: read-out: Activity
# MG-63 [25] = assay: Antitumor activity against human MG-63 cells xenografted in female BALB/c mouse model assessed as reduction in Ki67 level in tumor treated via oral gavage administered once a day for 3 weeks by IHC analysis; type: functional, cell-based; conditions: dose 10-60 mg/kg
# MG-63 [26] = assay: Induction of apoptosis in human MG-63 cells assessed as late apoptotic cells at 2 uM measured after 48 hrs annexin-V and propidium iodide staining based flow cytometry analysis (reference value: 7.71%); type: functional
# MG-63 [27] = assay: Downregulation of TRF expression levels in human MG-63 cells measured after 48 hrs by Western blot analysis; type: functional, cell-based; conditions: dose 2-4 µM
# MG-63 [28] = assay: Antitumor activity against human MG-63 cells xenografted in female BALB/c mouse model assessed as nucleocytoplasmic separation in tumor tissue treated via oral gavage administered once a day for 3 weeks by HE staining analysis; type: functional, cell-based; conditions: dose 10-60 mg/kg
# MG-63 [29] = assay: Induction of apoptosis in human MG-63 cells assessed as necrotic cells at 2 uM measured after 48 hrs annexin-V and propidium iodide staining based flow cytometry analysis (reference value: 0.52%); type: functional
# [30] = Acute toxicity in mouse assessed as aspartate transaminase level (AST) level in serum at 30 to 90 mg/kg, po single dose measured for 7 days; type: organism-based; conditions: in vivo, 168 h, dose 30-90 mg/kg, time 7 day
# MG-63 [31] = assay: Induction of apoptosis in human MG-63 cells assessed as early apoptotic cells at 2 uM measured after 48 hrs annexin-V and propidium iodide staining based flow cytometry analysis (reference value: 0.66%); type: functional
# [32] = Toxicity in female BALB/c mouse model xenografted with human MG-63 cells assessed as drug tolerance at 10 to 60 mg/kg, via oral gavage administered once a day for 3 weeks; type: organism-based; conditions: in vivo, 504 h, dose 10-60 mg/kg
structure (smiles),measurement,setting,value
COc1cc(OC)c(C(=O)/C=C/c2cccc(Br)c2)c(OC)c1,Activity,U2OS [1],Dose-dependent-effect
same,Activity,MG-63 [2],Active; Returned To Control Levels Within 4 Hrs
same,Activity,U2OS [3],12.9%
same,Activity,U2OS [4],Active
same,inhibition at 2 µM,[5],55.1%
same,Activity,U2OS [6],31%
same,Activity,[7],Non-toxic
same,Activity,MG-63 [8],Dose-dependent-effect
same,Activity,[9],Non-toxic
same,Activity,[10],Non-toxic
same,Activity,MG-63 [11],61.9%
same,Activity,MG-63 [12],Active
same,IC50,U2OS [13],5.28 µM
same,Activity,U2OS [14],Dose-dependent-effect
same,Activity,MG-63 [15],Dose-dependent-effect
same,inhibition,U2OS [16],Active
same,Activity,U2OS [17],18.3%
same,Activity,U2OS [18],Dose-dependent-effect
same,Activity,[19],Active
same,Activity,MG-63 [20],Dose-dependent-effect
same,Activity,MG-63 [21],Active
same,Activity,U2OS [22],0.523%
same,Activity,U2OS [23],Active
same,viability at 2 µM,U2OS [24],67.7%
same,Activity,MG-63 [25],Dose-dependent-effect; Compound Showed Significantly Stronger Effect Than Ar And Fkb04
same,Activity,MG-63 [26],38.2%
same,Activity,MG-63 [27],Dose-dependent-effect
same,Activity,MG-63 [28],Dose-dependent-effect; Significant Than Control
same,Activity,MG-63 [29],2.69%
same,Activity,[30],Non-toxic
same,Activity,MG-63 [31],11.2%
same,Activity,[32],Non-toxic
